Test results as given in ChEMBL document CHEMBL2434882, “A novel [1,2,4] triazolo [1,5-a] pyrimidine-based phenyl-linked steroid dimer: synthesis and its cytotoxic activity” (Eur J Med Chem, 2013).
Calls of active or inactive are those of the source. No cut-off for these calls is given here.

Experiments:
[1] = tested on: ECa-109 cell line; assay: Induction of apoptosis in human EC109 cells assessed as nuclear fragmentation at 1.25 to 20 uM after 24 hrs by Hoechst 33258 staining-based fluorescence microscopic analysis; assay type: functional, cell-based
[2] = tested on: ECa-109 cell line; assay: Induction of apoptosis in human EC109 cells assessed as change in cellular morphology at 1.25 to 20 uM after 24 hrs by inverted microscopic analysis; assay type: functional, cell-based
[3] = tested on: ECa-109 cell line; assay: Induction of apoptosis in human EC109 cells assessed as damaged cells at 10 uM after 12 hrs by annexin V-FITC/propidium iodide staining-based flow cytometric analysis (reference value: 0.4%); assay type: functional
[4] = tested on: ECa-109 cell line; assay: Induction of apoptosis in human EC109 cells assessed as late apoptotic cells at 20 uM after 12 hrs by annexin V-FITC/propidium iodide staining-based flow cytometric analysis (reference value: 1.4%); assay type: functional
[5] = tested on: ECa-109 cell line; assay: Induction of apoptosis in human EC109 cells assessed as increase in late apoptotic cells after 12 to 24 hrs by annexin V-FITC/propidium iodide staining-based flow cytometric analysis; assay type: functional, cell-based
[6] = tested on: ECa-109 cell line; assay: Induction of apoptosis in human EC109 cells assessed as early apoptotic cells at 20 uM after 12 hrs by annexin V-FITC/propidium iodide staining-based flow cytometric analysis (reference value: 6.1%); assay type: functional
[7] = tested on: ECa-109 cell line; assay: Induction of apoptosis in human EC109 cells assessed as late apoptotic cells at 10 uM after 24 hrs by annexin V-FITC/propidium iodide staining-based flow cytometric analysis (reference value: 2.5%); assay type: functional
[8] = tested on: ECa-109 cell line; assay: Induction of apoptosis in human EC109 cells assessed as late apoptotic cells at 5 uM after 12 hrs by annexin V-FITC/propidium iodide staining-based flow cytometric analysis (reference value: 1.4%); assay type: functional
[9] = Cell cycle arrest in human EC109 cells assessed as accumulation at S phase at 5 uM after 24 hrs by propidium iodide staining-based flow cytometric analysis (reference value: 37.99%); assay type: functional; settings: ECa-109
[10] = tested on: ECa-109 cell line; assay: Induction of apoptosis in human EC109 cells assessed as late apoptotic cells at 10 uM after 12 hrs by annexin V-FITC/propidium iodide staining-based flow cytometric analysis (reference value: 1.4%); assay type: functional
[11] = tested on: ECa-109 cell line; assay: Induction of apoptosis in human EC109 cells assessed as increase in early apoptotic cells at 2.5 to 40 uM by annexin V-FITC/propidium iodide staining-based flow cytometric analysis; assay type: functional, cell-based; settings: TDE = time-dependent effect
[12] = tested on: ECa-109; assay: Disruption of mitochondrial membrane potential in human EC109 cells after 24 hrs by JC1 staining-based flow cytometric analysis; assay type: functional, cell-based
[13] = Disruption of mitochondrial membrane potential in human EC109 cells at 10 uM after 24 hrs by JC1 staining-based flow cytometric analysis (reference value: 8.1%); assay type: functional, ECa-109
[14] = tested on: ECa-109 cell line; assay: Induction of apoptosis in human EC109 cells assessed as late apoptotic cells at 2.5 uM after 24 hrs by annexin V-FITC/propidium iodide staining-based flow cytometric analysis (reference value: 2.5%); assay type: functional
[15] = tested on: ECa-109 cell line; assay: Induction of apoptosis in human EC109 cells assessed as nuclear condensation at 1.25 to 20 uM after 24 hrs by Hoechst 33258 staining-based fluorescence microscopic analysis; assay type: functional, cell-based
[16] = tested on: MCF7; assay: Cytotoxicity against human MCF7 cells assessed as growth inhibition after 72 hrs by MTT assay; assay type: functional, cell-based; settings: MCF7, 72 h
[17] = Cell cycle arrest in human EC109 cells assessed as accumulation at S phase at 10 uM after 12 hrs by propidium iodide staining-based flow cytometric analysis (reference value: 33.29%); assay type: functional; settings: ECa-109
[18] = Cell cycle arrest in human EC109 cells assessed as accumulation at S phase at 10 uM after 24 hrs by propidium iodide staining-based flow cytometric analysis (reference value: 37.99%); assay type: functional; settings: ECa-109
[19] = tested on: ECa-109 cell line; assay: Induction of apoptosis in human EC109 cells assessed as early apoptotic cells at 2.5 uM after 24 hrs by annexin V-FITC/propidium iodide staining-based flow cytometric analysis (reference value: 3.8%); assay type: functional
[20] = tested on: ECa-109 cell line; assay: Induction of apoptosis in human EC109 cells assessed as live cells at 20 uM after 12 hrs by annexin V-FITC/propidium iodide staining-based flow cytometric analysis (reference value: 92.1%); assay type: functional
[21] = Cytotoxicity against human L02 cells assessed as growth inhibition after 72 hrs by MTT assay; assay type: cell-based; settings: L02, 72 h
[22] = tested on: ECa-109 cell line; assay: Induction of apoptosis in human EC109 cells assessed as early apoptotic cells at 20 uM after 24 hrs by annexin V-FITC/propidium iodide staining-based flow cytometric analysis (reference value: 3.8%); assay type: functional
[23] = tested on: ECa-109 cell line; assay: Induction of apoptosis in human EC109 cells assessed as damaged cells at 2.5 uM after 12 hrs by annexin V-FITC/propidium iodide staining-based flow cytometric analysis (reference value: 0.4%); assay type: functional
[24] = tested on: PC-3; assay: Cytotoxicity against human PC3 cells assessed as growth inhibition after 72 hrs by MTT assay; assay type: functional, cell-based; settings: PC-3, 72 h
[25] = Cell cycle arrest in human EC109 cells assessed as accumulation at G0/G1 phase at 10 uM after 24 hrs by propidium iodide staining-based flow cytometric analysis (reference value: 51.57%); assay type: functional; settings: ECa-109
[26] = tested on: ECa-109 cell line; assay: Induction of apoptosis in human EC109 cells assessed as induction of cytochrome c release from mitochondria at 5 to 10 uM after 24 hrs by Western blot analysis; assay type: functional, cell-based
[27] = tested on: ECa-109 cell line; assay: Induction of apoptosis in human EC109 cells assessed as live cells at 2.5 uM after 12 hrs by annexin V-FITC/propidium iodide staining-based flow cytometric analysis (reference value: 92.1%); assay type: functional
[28] = tested on: ECa-109 cell line; assay: Induction of apoptosis in human EC109 cells assessed as early apoptotic cells at 5 uM after 24 hrs by annexin V-FITC/propidium iodide staining-based flow cytometric analysis (reference value: 3.8%); assay type: functional
[29] = tested on: ECa-109 cell line; assay: Induction of apoptosis in human EC109 cells assessed as live cells at 5 uM after 24 hrs by annexin V-FITC/propidium iodide staining-based flow cytometric analysis (reference value: 93.6%); assay type: functional
[30] = Cytotoxicity against human EC109 cells assessed as growth inhibition after 72 hrs by MTT assay; assay type: functional, cell-based; settings: ECa-109, 72 h
[31] = Cell cycle arrest in human EC109 cells assessed as accumulation at S phase at 5 uM after 12 hrs by propidium iodide staining-based flow cytometric analysis (reference value: 33.29%); assay type: functional; settings: ECa-109
[32] = Cell cycle arrest in human EC109 cells assessed as accumulation at G2/M phase at 10 uM after 24 hrs by propidium iodide staining-based flow cytometric analysis (reference value: 6.31%); assay type: functional; settings: ECa-109
[33] = Cell cycle arrest in human EC109 cells assessed as accumulation at G2/M phase at 2.5 uM after 12 hrs by propidium iodide staining-based flow cytometric analysis (reference value: 13.72%); assay type: functional; settings: ECa-109
[34] = Upregulation of p53 protein expression in human EC109 cells at 5 to 10 uM after 24 hrs by Western blot analysis; assay type: functional, cell-based; settings: ECa-109
[35] = tested on: ECa-109 cell line; assay: Induction of apoptosis in human EC109 cells assessed as live cells at 5 uM after 12 hrs by annexin V-FITC/propidium iodide staining-based flow cytometric analysis (reference value: 92.1%); assay type: functional
[36] = Cell cycle arrest in human EC109 cells assessed as accumulation at G2/M phase at 10 uM after 12 hrs by propidium iodide staining-based flow cytometric analysis (reference value: 13.72%); assay type: functional; settings: ECa-109

Structure (SMILES): C[C@]12CC[C@H](O)CC1=CC[C@@H]1[C@@H]2CC[C@]2(C)c3nc4ncnn4c(-c4cccc(-c5c6c(nc7ncnn57)[C@@]5(C)CC[C@H]7[C@@H](CC=C8C[C@@H](O)CC[C@@]87C)[C@@H]5C6)c4)c3C[C@@H]12
- Activity [1]: Active
- Activity [2]: Active
- Activity [3]: 2.7%
- Activity [4]: 51.1%
- Activity [5]: Dose-dependent effect
- Activity [6]: 34%
- Activity [7]: 47.7%
- Activity [8]: 14%
- Activity [9]: 27%
- Activity [10]: 23.4%
- Activity [11]: tde
- Activity [12]: Dose-dependent effect
- Activity [13]: 76.7%
- Activity [14]: 2.5%
- Activity [15]: Active
- IC50 [16]: 1190 nM
- Activity [17]: 21.6%
- Activity [18]: 28.5%
- Activity [19]: 25%
- Activity [20]: 12.8%
- IC50 [21]: 83000 nM
- Activity [22]: 31.5%
- Activity [23]: 1.7%
- IC50 [24]: 3180 nM
- Activity [25]: 45%
- Activity [26]: Active
- Activity [27]: 58.3%
- Activity [28]: 39.1%
- Activity [29]: 48.2%
- IC50 [30]: 2360 nM
- Activity [31]: 29.5%
- Activity [32]: 25.1%
- Activity [33]: 17.9%
- Activity [34]: Active
- Activity [35]: 59.9%
- Activity [36]: 28.3%
